SMILES strings stand for the structures.

Format in all cases: biochemical
Holding throughout (settings): 1 μM inhibitor concentration

The target of assay [1] is PKBb (Homo sapiens (Human), UniProt P31751, S474D). Kind of assay: PKBb kinase selectivity assay. On the procedure: ΔPH-PKBbeta-S474D (5-20 mU diluted in 50 mM Tris pH 7.5, 0.1 mM EGTA, 0.1% b-mercaptoethanol, 1 mg/ml BSA) is assayed against a modified Crosstide peptide ([…]) in a final volume of 25.5 μl containing 50 mM Tris pH 7.5, 0.05% b-mercaptoethanol, 30 μM substrate peptide, 10 mM magnesium acetate and 0.05 mM [33P-g-ATP](50-1000 cpm/pmole) and incubated for 30 min at room temperature. Assays are stopped by addition of 5 μl of 0.5 M (3%) orthophosphoric acid and then harvested onto P81 Unifilter plates with a wash buffer of 50 mM orthophosphoric acid.
Sequence of PKBb (P31751 120-481 S474D): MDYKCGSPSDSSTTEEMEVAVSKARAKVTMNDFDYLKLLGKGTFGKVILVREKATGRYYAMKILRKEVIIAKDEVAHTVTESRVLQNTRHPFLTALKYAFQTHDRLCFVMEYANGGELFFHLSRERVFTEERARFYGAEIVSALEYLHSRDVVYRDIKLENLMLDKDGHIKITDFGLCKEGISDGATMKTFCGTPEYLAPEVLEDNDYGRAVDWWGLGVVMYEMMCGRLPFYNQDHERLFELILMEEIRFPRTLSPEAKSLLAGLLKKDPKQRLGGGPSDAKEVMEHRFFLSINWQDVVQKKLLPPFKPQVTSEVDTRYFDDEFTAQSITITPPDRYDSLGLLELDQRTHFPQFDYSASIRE

Assay [2] addresses SmMLCK (Homo sapiens (Human), UniProt Q15746). The assay can be described thus: SmMLCK kinase selectivity assay. As for the experimental part: 5-20 mU of smMLCK (diluted in 50 mM Hepes (pH 7.5), 0.1 mM EGTA, 1 mg/ml BSA, 0.1%, b-Mercaptoethanol) is assayed against substrate peptide ([…]) in a final volume of 25.5 μl containing 50 mM Hepes (pH 7.5), 0.1 mM EGTA, 5 mM CaCl2, […] Calmodulin, 300 μM substrate peptide, 10 mM magnesium acetate and 0.05 mM [33P-g-ATP](500-1000 cpm/pmole) and incubated for 30 mins at room temperature. Assays are stopped by addition of 5 μl of 0.5M (3%) orthophosphoric acid. Assays are harvested onto P81 Unifilter plates using a wash buffer of 50 mM orthophosphoric acid.

Assay [3] has as its target AuroraA (Homo sapiens (Human), UniProt O14965). Kind of assay: AuroraA kinase selectivity assay. On the procedure:
Aurora A (5-20 mU diluted in 50 mM Tris pH 7.5, 0.1 mM EGTA, 0.1% β-mercaptoethanol, 1 mg/ml BSA) is assayed against […] in a final volume of […] containing 50 mM Tris pH 7.5, 0.1 mM EGTA, 0.3 mM […] 10 mM magnesium acetate and 0.005 mM [33P-γ-ATP](50-1000 cpm/pmole) and incubated for 30 min at room temperature. Assays are stopped by addition of 5 μl of 0.5 M (3%) orthophosphoric acid and then harvested onto P81 Unifilter plates with a wash buffer of 50 mM orthophosphoric acid.

Assay [4] deals with NEK2a (Homo sapiens (Human), UniProt P51955). Kind of assay: NEK2a kinase selectivity assay. On the procedure:
5-20 mU of NEK2a (diluted in 50 mM Tris (pH 7.5), 0.1 mM EGTA, 1 mg/ml BSA, 0.1%, b-Mercaptoethanol) is assayed against NEK2a peptide ([…]) in a final volume of 25.5 μl containing 50 mM Tris (pH 7.5), 0.1 mM EGTA, 0.01% Brij, 0.1%, b-Mercaptoethanol, 300 μM NEK2a peptide, 10 mM magnesium acetate and 0.05 mM [33P-g-ATP](500-1000 cpm/pmole) and incubated for 30 mins at room temperature. Assays are stopped by addition of 5 μl of 0.5M (3%) orthophosphoric acid. Assays are harvested onto P81 Unifilter plates using a wash buffer of 50 mM orthophosphoric acid.

Assay [5] has as its target NEK6 (Homo sapiens (Human), UniProt Q9HC98). Kind of assay: NEK6 kinase selectivity assay. On the procedure: NEK6 (5-20 mU diluted in 50 mM Tris (pH 7.5), 0.1 mM EGTA, 1 mg/ml BSA, 0.1%, b-Mercaptoethanol) is assayed against NEK6 peptide ([…]) in a final volume of 25.5 μl containing 50 mM Tris (pH 7.5), 0.1 mM EGTA, 0.01% Brij, 0.1%, b-Mercaptoethanol, NEK6 peptide (0.3 mM), 10 mM magnesium acetate and 0.05 mM [33P-g-ATP](500-1000 cpm/pmole) and incubated for 30 min at room temperature. Assays are stopped by addition of 5 μl of 0.5 M (3%) orthophosphoric acid and then harvested onto P81 Unifilter plates with a wash buffer of 50 mM orthophosphoric acid.

Assay [6] concerns the target IKKe (Homo sapiens (Human), UniProt Q14164). Kind of assay: IKKe kinase selectivity assay. On the procedure:
5-20 mU of IKKepsilon (DU14231)(diluted in 50 mM Tris (pH 7.5), 0.1 mM EGTA, 1 mg/ml BSA) is assayed against MBP in a final volume of 25.5 μl containing 50 mM Tris (pH 7.5), 0.1 mM EGTA, 0.33 mg/ml MBP, 10 mM magnesium acetate and 0.05 mM [33P-g-ATP](500-1000 cpm/pmole) and incubated for 30 mins at room temperature. Assays are stopped by addition of 5 μl of 0.5M (3%) orthophosphoric acid. Assays are harvested onto P81 Unifilter plates using a wash buffer of 50 mM orthophosphoric acid.

Assay [7] concerns the target RIPK2 (Homo sapiens (Human), UniProt O43353). Kind of assay: RIPK2 kinase selectivity assay. On the procedure:
RIPK2 (5-20 mU diluted in 50 mM Tris pH 7.5, 0.1 mM EGTA, 0.1% β-mercaptoethanol, 1 mg/ml BSA) is assayed against MBP in a final volume of […] containing 50 mM Tris pH 7.5, 0.1 mM EGTA, 0.33 mg/ml MBP, 10 mM magnesium acetate and 0.02 mM [33P-γ-ATP] (50-1000 cpm/pmole) and incubated for 30 min at room temperature. Assays are stopped by addition of 5 μl of 0.5 M (3%) orthophosphoric acid and then harvested onto P81 Unifilter plates with a wash buffer of 50 mM orthophosphoric acid.

In assay [8] the test system is VEG-FR. Kind of assay: VEG-FR kinase selectivity assay. As for the experimental part: VEG-FR (5-20 mU diluted in 50 mM Tris pH 7.5, 0.1 mM EGTA, 1 mg/ml BSA) is assayed against a substrate peptide ([…]) in a final volume of 25.5 μl containing 50 mM Tris pH 7.5, 300 µM substrate peptide, 10 mM magnesium acetate and 0.02 mM [33P-g-ATP] (50-1000 cpm/pmole) and incubated for 30 min at room temperature. Assays are stopped by addition of 5 μl of 0.5 M (3%) orthophosphoric acid and then harvested onto P81 Unifilter plates with a wash buffer of 50 mM orthophosphoric acid.

Sequence of IKKe (Q14164 whole entry, species assumed): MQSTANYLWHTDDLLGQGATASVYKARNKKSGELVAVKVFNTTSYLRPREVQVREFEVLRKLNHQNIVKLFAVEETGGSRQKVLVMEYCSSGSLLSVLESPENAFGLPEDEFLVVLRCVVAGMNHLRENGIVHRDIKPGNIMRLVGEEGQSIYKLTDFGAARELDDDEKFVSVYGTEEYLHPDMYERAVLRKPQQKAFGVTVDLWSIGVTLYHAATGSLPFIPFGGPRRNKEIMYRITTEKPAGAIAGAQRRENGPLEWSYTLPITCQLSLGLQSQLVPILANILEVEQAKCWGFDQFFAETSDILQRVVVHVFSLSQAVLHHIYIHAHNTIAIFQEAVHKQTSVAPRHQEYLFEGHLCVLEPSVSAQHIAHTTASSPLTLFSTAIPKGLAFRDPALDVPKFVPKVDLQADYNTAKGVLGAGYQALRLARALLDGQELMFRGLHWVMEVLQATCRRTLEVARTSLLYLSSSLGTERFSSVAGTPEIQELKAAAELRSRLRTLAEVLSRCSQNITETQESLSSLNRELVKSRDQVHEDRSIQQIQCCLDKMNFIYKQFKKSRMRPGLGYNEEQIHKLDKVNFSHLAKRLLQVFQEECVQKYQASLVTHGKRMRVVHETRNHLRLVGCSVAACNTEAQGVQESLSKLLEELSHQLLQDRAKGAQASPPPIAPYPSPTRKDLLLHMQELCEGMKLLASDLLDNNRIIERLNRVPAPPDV
Sequence of AuroraA (O14965 whole entry): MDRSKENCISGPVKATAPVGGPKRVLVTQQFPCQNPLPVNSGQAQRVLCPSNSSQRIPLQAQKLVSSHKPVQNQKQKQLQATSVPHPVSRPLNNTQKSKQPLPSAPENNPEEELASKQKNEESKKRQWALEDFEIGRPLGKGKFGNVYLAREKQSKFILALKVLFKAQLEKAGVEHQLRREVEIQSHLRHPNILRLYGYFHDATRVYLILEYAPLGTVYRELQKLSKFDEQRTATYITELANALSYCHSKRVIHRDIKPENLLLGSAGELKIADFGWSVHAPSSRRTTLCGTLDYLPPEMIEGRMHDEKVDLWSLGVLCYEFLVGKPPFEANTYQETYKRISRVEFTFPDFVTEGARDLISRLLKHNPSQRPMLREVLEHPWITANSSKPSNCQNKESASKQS
Sequence of RIPK2 (O43353 whole entry, species assumed): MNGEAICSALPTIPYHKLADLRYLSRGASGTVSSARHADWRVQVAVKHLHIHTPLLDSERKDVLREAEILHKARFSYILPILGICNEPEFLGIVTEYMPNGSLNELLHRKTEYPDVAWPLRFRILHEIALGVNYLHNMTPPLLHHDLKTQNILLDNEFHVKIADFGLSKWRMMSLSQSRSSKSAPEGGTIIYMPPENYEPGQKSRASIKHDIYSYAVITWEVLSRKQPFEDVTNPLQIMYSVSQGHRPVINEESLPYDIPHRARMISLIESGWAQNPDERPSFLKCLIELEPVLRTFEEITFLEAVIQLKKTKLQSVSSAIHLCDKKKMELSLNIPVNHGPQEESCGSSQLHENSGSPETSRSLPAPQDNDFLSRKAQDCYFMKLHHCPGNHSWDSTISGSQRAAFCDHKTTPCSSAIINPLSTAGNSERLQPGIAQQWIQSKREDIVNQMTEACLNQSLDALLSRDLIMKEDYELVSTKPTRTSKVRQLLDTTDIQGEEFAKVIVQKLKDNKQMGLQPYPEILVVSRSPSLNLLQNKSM
Sequence of NEK2a (P51955 whole entry, species assumed): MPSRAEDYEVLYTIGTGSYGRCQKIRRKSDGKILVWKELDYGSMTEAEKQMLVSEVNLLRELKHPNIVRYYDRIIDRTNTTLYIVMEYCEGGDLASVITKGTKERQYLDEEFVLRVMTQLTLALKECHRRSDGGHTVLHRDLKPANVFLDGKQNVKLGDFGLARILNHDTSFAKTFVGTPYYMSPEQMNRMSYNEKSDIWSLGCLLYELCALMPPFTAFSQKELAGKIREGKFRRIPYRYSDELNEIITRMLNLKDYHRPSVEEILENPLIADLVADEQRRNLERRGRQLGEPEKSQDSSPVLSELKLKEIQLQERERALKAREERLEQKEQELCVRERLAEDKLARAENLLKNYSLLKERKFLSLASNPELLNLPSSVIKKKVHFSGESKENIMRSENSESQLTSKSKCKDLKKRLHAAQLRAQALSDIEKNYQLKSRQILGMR
Sequence of NEK6 (Q9HC98 whole entry, species assumed): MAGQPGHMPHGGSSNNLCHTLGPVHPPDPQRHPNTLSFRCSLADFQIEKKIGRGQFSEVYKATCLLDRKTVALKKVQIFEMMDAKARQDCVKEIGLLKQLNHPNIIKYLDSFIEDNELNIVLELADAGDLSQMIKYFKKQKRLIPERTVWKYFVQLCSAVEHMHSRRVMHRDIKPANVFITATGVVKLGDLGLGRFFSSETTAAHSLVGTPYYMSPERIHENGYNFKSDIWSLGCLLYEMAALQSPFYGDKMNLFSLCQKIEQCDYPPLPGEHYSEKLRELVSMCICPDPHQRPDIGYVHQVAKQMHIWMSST

Turning to `c1cc2[nH]nc3c2c(n1)N(C1CCC1)CCC3` [Example 22, 6-cyclobutyl-6,7,8,9-tetrahydro-2H-1,2,5,6-tetraazabenzo[cd]azulene], the “percentage inhibition of PKBb” value in assay [1] was 0 percentage. The “percentage inhibition of SmMLCK” value in assay [2] was found to be 16 percentage. Further, in assay [3], the “percentage inhibition of AuroraA” value was 0 percentage. In assay [4], the “percentage inhibition of NEK2a” value is given as 13 percentage. Also, the “percentage inhibition of NEK6” value in assay [5] is listed as 3 percentage. Besides, in assay [6], the “percentage inhibition of IKKe” value turned out to be 0 percentage. Moreover, the “percentage inhibition of RIPK2” value in assay [7] is on record as 0 percentage. The “percentage inhibition of VEG-FR” value in assay [8] worked out at 0 percentage.

`c1cc2[nH]nc3c2c(n1)N(C1CCCC1)CCC3` [Example 23, 6-cyclopentyl-6,7,8,9-tetrahydro-2H-1,2,5,6-tetraazabenzo[cd]azulene]: in assay [1], the “percentage inhibition of PKBb” value amounted to 0 percentage. In addition, in assay [2], the “percentage inhibition of SmMLCK” value amounted to 15 percentage. The “percentage inhibition of AuroraA” value in assay [3] came out at 0 percentage. Also, the “percentage inhibition of NEK2a” value in assay [4] turned out to be 8 percentage. Moreover, the “percentage inhibition of NEK6” value in assay [5] is 1 percentage. In assay [6], the “percentage inhibition of IKKe” value was found to be 0 percentage. The “percentage inhibition of RIPK2” value in assay [7] is on record as 0 percentage.

With `c1cc2[nH]nc3c2c(n1)N(C1CCOCC1)CCC3` [Example 29, 6-(tetrahydro-2H-pyran-4-yl)-6,7,8,9-tetrahydro-2H-1,2,5,6-tetraazabenzo[cd]azulene], the “percentage inhibition of PKBb” value in assay [1] is on record as 0 percentage. Further, in assay [2], the “percentage inhibition of SmMLCK” value is recorded as 11 percentage. Further, the “percentage inhibition of AuroraA” value in assay [3] came out at 0 percentage. Besides, in assay [4], the “percentage inhibition of NEK2a” value worked out at 0 percentage. The “percentage inhibition of NEK6” value in assay [5] is 1 percentage. In addition, in assay [6], the “percentage inhibition of IKKe” value was found to be 9 percentage. For the same molecule, in assay [7], the “percentage inhibition of RIPK2” value is reported as 0 percentage. Further, the “percentage inhibition of VEG-FR” value in assay [8] stood at 9 percentage.

On to `CN1CCC(N2Cc3ccccc3-c3n[nH]c4ccnc2c34)CC1` [Example 55], for which the “percentage inhibition of PKBb” value in assay [1] stood at 10 percentage. Further, in assay [2], the “percentage inhibition of SmMLCK” value amounted to 16 percentage. Besides, the “percentage inhibition of AuroraA” value in assay [3] worked out at 9 percentage. The “percentage inhibition of NEK2a” value in assay [4] is listed as 14 percentage. The “percentage inhibition of NEK6” value in assay [5] is 0 percentage. In addition, in assay [6], the “percentage inhibition of IKKe” value is 5 percentage. For the same molecule, in assay [7], the “percentage inhibition of RIPK2” value was determined as 7 percentage. The “percentage inhibition of VEG-FR” value in assay [8] was 19 percentage.

With `CC(C)n1ncc2c1CN(C1CCN(C)CC1)c1nccc3[nH]nc-2c13` [Example 68], the “percentage inhibition of PKBb” value in assay [1] is 9 percentage. The “percentage inhibition of SmMLCK” value in assay [2] stood at 9 percentage. Also, the “percentage inhibition of AuroraA” value in assay [3] came out at 13 percentage. Further, in assay [4], the “percentage inhibition of NEK2a” value is 0 percentage. Also, the “percentage inhibition of NEK6” value in assay [5] came out at 0 percentage. Also, the “percentage inhibition of IKKe” value in assay [6] is on record as 0 percentage. Moreover, the “percentage inhibition of RIPK2” value in assay [7] is listed as 0 percentage. Also, the “percentage inhibition of VEG-FR” value in assay [8] came out at 42 percentage.
